Data from patent US4476122A, “Alkyloximes of 7-amino-thiazolyl-acetamido-cephalosporanic acids” (Roussel Uclaf, priority 1976, dated 1984).
Read-outs that look alike come from different tables or passages of the source.

Columns and labels:
[1] = tested on: Bacillus subtilis ATCC 6 633; assay: MIC, liquid medium dilution; assay type: cell-based
Protocol: (§1) The method used was a dilution of a liquid medium where a series of tubes received the same quantity of a sterile nutritive media and increasing doses of the test compounds were placed therein. Then each tube was seeded with a bacterial strain and was incubated for 24 or 48 hours at 37° C. in an oven. The increasing inhibition was determined by transillumination to determine the minimum inhibiting concentration (MIC in μg/ml) and the results are reported in the following Tables.

Enterobacter cloacae 681 = assay: MIC, liquid medium dilution; assay type: cell-based; details: read-out: MIC
Protocol: as §1

[2] = tested on: Escherichia Coli Exp. TO26 B6; assay: MIC, liquid medium dilution; assay type: cell-based
Protocol: as §1

[3] = tested on: Escherichia Coli Resistant Gentamicine, Tobramycine R 55 123 D; assay: MIC, liquid medium dilution; assay type: cell-based
Protocol: as §1

[4] = tested on: Escherichia Coli Resistant Tetracycline ATCC 11 303; assay: MIC, liquid medium dilution; assay type: cell-based
Protocol: as §1

[5] = tested on: Escherichia Coli Sensitive Tetracycline ATCC 9 637; assay: MIC, liquid medium dilution; assay type: cell-based
Protocol: as §1

[6] = tested on: Klebsiella pneumoniae 2 536 Resistant Gentamicine; assay: MIC, liquid medium dilution; assay type: cell-based
Protocol: as §1

[7] = tested on: Klebsiella pneumoniae Exp. 52 145; assay: MIC, liquid medium dilution; assay type: cell-based
Protocol: as §1

[8] = tested on: Proteus mirabilis (indol-) A 235; assay: MIC, liquid medium dilution; assay type: cell-based
Protocol: as §1

Providencia Du 48 = assay: MIC, liquid medium dilution; assay type: cell-based
Protocol: as §1

[9] = tested on: Salmonella typhimurium 420; assay: MIC, liquid medium dilution; assay type: cell-based; details: Salmonella enterica
Protocol: as §1

[10] = tested on: Serratia Resistant Gentamicine 2 532; assay: MIC, liquid medium dilution; assay type: cell-based
Protocol: as §1

[11] = tested on: Staphylococcus aureus ATCC 6 538 Pen-Sensitive; assay: MIC, liquid medium dilution; assay type: cell-based
Protocol: as §1

[12] = tested on: Staphylococcus aureus UC 1 128 Pen-Resistant; assay: MIC, liquid medium dilution; assay type: cell-based
Protocol: as §1

[13] = tested on: Staphylococcus aureus exp. n° 54 146; assay: MIC, liquid medium dilution; assay type: cell-based
Protocol: as §1

[14] = tested on: Streptococcus faecalis 5 432; assay: MIC, liquid medium dilution; assay type: cell-based
Protocol: as §1

[15] = tested on: Streptococcus faecalis 99 F 74; assay: MIC, liquid medium dilution; assay type: cell-based; details: Enterococcus faecalis
Protocol: as §1

[16] = tested on: Streptococcus pyogenes A 561; assay: MIC, liquid medium dilution; assay type: cell-based
Protocol: as §1

[17] = tested on: Proteus vulgaris (indol+) A 232; assay: MIC, liquid medium dilution; assay type: cell-based
Protocol: as §1

[18] = tested on: Escherichia coli (T) O26 B6; assay: Experimental infection with Escherichia coli (T) O26 B6 in mice; assay type: in vivo
Protocol: The products of Example 6 and 10 were studied for their activity against an experimental infection of Escherichia coli in groups of 10 male mice weighing about 22 g. The mice received an intraperitoneal injection of 0.5 ml of a 24 hour old culture in a nutritive media of Escherichia coli (T) O26 B6 of the Pasteur Institute diluted 1/5.5 with distilled water. The test product was administered subcutaneously or orally 1 hour and 5 and 24 hours after the infection and the number of dead was determined during 8 days.

[19] = Enterococcus faecalis, 5432, 24 h

CO/N=C(\C(=O)NC1C(=O)N2C(C(=O)O)=C(CSc3nnc(C)s3)CS[C@H]12)c1csc(N)n1 (stereo partly shown) [Example 2, 7-[{2-(2-amino-4-thiazolyl)-2-methoxyiminoacetyl}amino]-3-[(2-methyl-1,3,4-thiadiazol-5-yl)-thiomethyl]-ceph-3-eme-4-carboxylic acid]
0.1 µg/mL: MIC ([4]; ATCC11, 24 h, read-out: MIC) | MIC ([7]; EXP.52145, 48 h, read-out: MIC)
≤ 0.02 µg/mL: MIC ([16]; A561, 24 h, read-out: MIC) | MIC ([16]; A561, 48 h, read-out: MIC)
0.4 µg/mL: MIC ([2]; 24 h) | MIC ([2]; 48 h) | MIC ([3]; 24 h) | MIC ([3]; 48 h)
1 µg/mL: MIC ([1]; ATCC6, 48 h) | MIC ([6]; 48 h) | MIC ([10]; 24 h) | MIC ([10]; 48 h) | MIC ([11]; ATCC6, 24 h) | MIC ([11]; ATCC6, 48 h) | MIC [14, 19]
5 µg/mL: MIC (Providencia Du 48; DU48, 48 h, read-out: MIC) | MIC ([15]; 99F74, 48 h, read-out: MIC)
0.05 µg/mL: MIC ([7]; EXP.52145, 24 h)
40 µg/mL: MIC (Enterobacter cloacae 681; Enterobacter cloacae, 681, 24 h) | MIC (Enterobacter cloacae 681; Enterobacter cloacae, 681, 48 h)
0.2 µg/mL: MIC ([4]; ATCC11, 48 h) | MIC ([8]; 24 h) | MIC ([8]; 48 h)
0.6 µg/mL: MIC ([1]; ATCC6, 24 h, read-out: MIC) | MIC ([5]; ATCC9, 24 h, read-out: MIC) | MIC ([5]; ATCC9, 48 h) | MIC ([6]; 24 h, read-out: MIC) | MIC ([9]; 24 h, read-out: MIC) | MIC ([9]; 48 h)
2 µg/mL: MIC (Providencia Du 48; DU48, 24 h, read-out: MIC) | MIC ([12]; UC1, 24 h, read-out: MIC) | MIC ([12]; UC1, 48 h, read-out: MIC) | MIC ([13]; 24 h, read-out: MIC) | MIC ([13]; 48 h, read-out: MIC) | MIC ([14]; Enterococcus faecalis, 5432, 48 h, read-out: MIC) | MIC ([15]; 99F74, 24 h, read-out: MIC)

CO/N=C(\C(=O)NC1C(=O)N2C(C(=O)O)=C(C)CSC12)c1csc(N)n1 (stereo not shown) [Example 10, 7-[{2-(2-amino-4-thiazolyl)-2-methoxyimino}acetylamino]-3-methyl-ceph-3-eme-4-carboxylic acid]
7/10: Mice surviving on the 8th day ([18]; per os, 3 × mg) | Mice surviving on the 8th day ([18]; s. c., 3 × 0,25 mg)
0.4 µg/mL: MIC ([2]; 24 h)
6/10: Mice surviving on the 8th day ([18]; s. c., 3 × 0,1 mg)
2/10: Mice surviving on the 8th day ([18]; per os, 3 × 0,5 mg) | Mice surviving on the 8th day ([18]; per os, 3 × 0,25 mg)
> 40 µg/mL: MIC ([1]; ATCC6, 48 h) | MIC ([14]; Enterococcus faecalis, 5432, 48 h) | MIC ([15]; 99F74, 48 h)
6: Mortality after 21 H 30 (number of dead of 10) ([18]; per os, 3 × 0,25 mg)
40 µg/mL: MIC ([11]; ATCC6, 48 h) | MIC ([12]; UC1, 24 h) | MIC ([12]; UC1, 48 h) | MIC ([13]; 24 h) | MIC ([13]; 48 h)
2 µg/mL: MIC ([6]; 48 h) | MIC (Providencia Du 48; DU48, 24 h)
1: Mortality after 5 J (number of dead of 10) ([18]; per os, 3 × 0,5 mg) | Mortality after 47 H (number of dead of 10) ([18]; per os, 3 × 0,5 mg) | Mortality after 24 H 30 (number of dead of 10) ([18]; per os, 3 × 0,25 mg) | Mortality after 24 H (number of dead of 10) ([18]; per os, 3 × 0,25 mg) | Mortality after 21 H 30 (number of dead of 10) ([18]; per os, 3 × mg) | Mortality after 47 H (number of dead of 10) ([18]; s. c., 3 × 0,1 mg) | Mortality after 5 H 30 (number of dead of 10) ([18]; s. c., 3 × 0,25 mg) | Mortality after 28 H (number of dead of 10) ([18]; s. c., 3 × 0,25 mg) | Mortality after 54 H (number of dead of 10) ([18]; s. c., 3 × 0,25 mg)
3 µg/mL: MIC ([17]; 24 h)
5 µg/mL: MIC (Providencia Du 48; DU48, 48 h) | MIC ([10]; 24 h)
0.6 µg/mL: MIC ([2]; 48 h) | MIC ([3]; 24 h, read-out: MIC) | MIC ([3]; 48 h) | MIC ([5]; ATCC9, 24 h, read-out: MIC) | MIC ([5]; ATCC9, 48 h) | MIC ([6]; 24 h, read-out: MIC) | MIC ([9]; 24 h, read-out: MIC) | MIC ([9]; 48 h)
0.1 µg/mL: MIC ([7]; EXP.52145, 24 h, read-out: MIC) | MIC ([7]; EXP.52145, 48 h, read-out: MIC) | MIC ([8]; 24 h, read-out: MIC)
0.2 µg/mL: MIC ([4]; ATCC11, 24 h) | MIC ([4]; ATCC11, 48 h) | MIC ([8]; 48 h)
20 µg/mL: MIC ([1]; ATCC6, 24 h) | MIC ([17]; 48 h) | MIC ([11]; ATCC6, 24 h) | MIC [14, 19] | MIC ([15]; 99F74, 24 h)
0.05 µg/mL: MIC ([16]; A561, 24 h) | MIC ([16]; A561, 48 h, read-out: MIC)
2: Mortality after 6 J (number of dead of 10) ([18]; per os, 3 × 0,5 mg) | Mortality after 21 H 30 (number of dead of 10) ([18]; per os, 3 × 0,5 mg) | Mortality after 70 H (number of dead of 10) ([18]; per os, 3 × 0,5 mg) | Mortality after 47 H (number of dead of 10) ([18]; per os, 3 × mg) | Mortality after 47 H (number of dead of 10) ([18]; s. c., 3 × 0,5 mg)
8/10: Mice surviving on the 8th day ([18]; s. c., 3 × 0,5 mg)
10 µg/mL: MIC ([10]; 48 h, read-out: MIC)
3: Mortality after 21 H 30 (number of dead of 10) ([18]; s. c., 3 × 0,1 mg)
